{"source": "patent US12678507B2", "about": "“Protein tyrosine kinase 6 (PTK6) degradation / disruption compounds and methods of use” (Icahn School of Medicine at Mount Sinai, priority 2018, dated 2026)"}
{"molecular_target": "T1, PTK6 (Homo sapiens, UniProt Q13882)", "T1 construct": "endogenous in cells; host or cells: MDA-MB231 cells (ATCC)", "T1 sequence (Q13882 whole entry)": "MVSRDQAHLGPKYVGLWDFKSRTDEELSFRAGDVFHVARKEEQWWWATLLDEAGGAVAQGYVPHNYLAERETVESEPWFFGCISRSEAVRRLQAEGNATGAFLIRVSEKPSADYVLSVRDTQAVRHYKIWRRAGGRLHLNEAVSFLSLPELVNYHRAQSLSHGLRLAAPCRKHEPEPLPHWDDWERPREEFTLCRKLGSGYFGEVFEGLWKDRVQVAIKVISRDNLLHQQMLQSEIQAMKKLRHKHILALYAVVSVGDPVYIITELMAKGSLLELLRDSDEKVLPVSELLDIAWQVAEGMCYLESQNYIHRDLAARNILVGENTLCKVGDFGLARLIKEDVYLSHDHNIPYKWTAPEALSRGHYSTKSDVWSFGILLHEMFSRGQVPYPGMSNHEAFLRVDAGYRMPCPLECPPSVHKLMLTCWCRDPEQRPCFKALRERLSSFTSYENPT", "assay": "Western blot of PTK6 protein levels in MDA-MB231 cells", "type": "cell-based", "details": "MDA-231 (MDA-MB231) cells, 500 nM, 24 hours, Western blot (FIGS. 3-5)", "experimental": "FIGS. 2-5. Effects of exemplary compounds on reducing PTK6 protein levels in breast cancer cells. Triple negative MDA-MB231 cells were treated for 24 hours with 500 nM, 2 uM or 2.5 uM of test compound and lysed. Proteins were resolved by SDS/PAGE and immunoblotted with antibody to PTK6 (Santa Cruz, Cell Signaling) or GAPDH loading control (Cell Signaling).\nFIG. 13. PTK6 degraders suppress PTK6 expression. MDA-MB231 cells were treated with compounds (500 nM or 1 uM) for 24 hours in monolayer cultures. Cells were lysed and lysates were probed with anti-PTK6 antibody.\nMDA-MB231 cells were treated with DMSO or indicated compounds at 2.5 uM, 2 uM or 500 nM for 24 hours.\nMDA-MB231 cells were treated with compounds (500 nM or 1 uM) for 24 hours in monolayer cultures. Cells were lysed and lysates were probed with anti-PTK6 antibody.\nCells were lysed in 1% NP-40 lysis buffer containing NaF, Na3VO4, Leupeptin, PMSF, aprotinin, and phosphatase inhibitor (PhosSTOP, Roche) as described previously (Irie et al., 2010). Cleared cell lysates were stored at −80° C. and were analyzed by western analysis as described previously (Irie et al., 2010)."}
{"compound": "Cc1ncsc1-c1ccc(CNC(=O)[C@@H]2C[C@@H](O)CN2C(=O)[C@@H](NC(=O)CCCCCCCCCCNC(=O)CN2CCN(C(=O)c3ccc(Nc4nc(C5CC5)cn5c(-c6cn[nH]c6)cnc45)c(F)c3)CC2)C(C)(C)C)cc1", "note": "[YX39-107, (2S,4R)-1-((S)-2-(11-(2-(4-(4-((6-cyclopropyl-3-(1H-pyrazol-4-yl)imidazo[1,2-a]pyrazin-8-yl)amino)-3-fluorobenzoyl)piperazin-1-yl)acetamido)undecanamido)-3,3-dimethylbutanoyl)-4-hydroxy-N-(4-(4-methylthiazol-5-yl)benzyl)pyrrolidine-2-carboxamide]", "reducing PTK6 protein levels / suppress PTK6 expression": "effective in reducing PTK6 protein levels"}
{"compound": "Cc1ncsc1-c1ccc(CNC(=O)[C@@H]2C[C@@H](O)CN2C(=O)[C@@H](NC(=O)CCCC(=O)N2CCN(C(=O)c3ccc(Nc4nc(C5CC5)cn5c(-c6cn[nH]c6)cnc45)c(F)c3)CC2)C(C)(C)C)cc1", "note": "[YX79-10, (2S,4R)-1-((S)-2-(5-(4-(4-((6-cyclopropyl-3-(1H-pyrazol-4-yl)imidazo[1,2-a]pyrazin-8-yl)amino)-3-fluorobenzoyl)piperazin-1-yl)-5-oxopentanamido)-3,3-dimethylbutanoyl)-4-hydroxy-N-(4-(4-methylthiazol-5-yl)benzyl)pyrrolidine-2-carboxamide]", "reducing PTK6 protein levels / suppress PTK6 expression": "potently suppress PTK6 expression"}
{"compound": "Cc1ncsc1-c1ccc(CNC(=O)[C@@H]2C[C@@H](O)CN2C(=O)[C@@H](NC(=O)CCCCCC(=O)N2CCN(C(=O)c3ccc(Nc4nc(C5CC5)cn5c(-c6cn[nH]c6)cnc45)c(F)c3)CC2)C(C)(C)C)cc1", "note": "[YX79-12, (2S,4R)-1-((S)-2-(7-(4-(4-((6-cyclopropyl-3-(1H-pyrazol-4-yl)imidazo[1,2-a]pyrazin-8-yl)amino)-3-fluorobenzoyl)piperazin-1-yl)-7-oxoheptanamido)-3,3-dimethylbutanoyl)-4-hydroxy-N-(4-(4-methylthiazol-5-yl)benzyl)pyrrolidine-2-carboxamide]", "reducing PTK6 protein levels / suppress PTK6 expression": "potently suppress PTK6 expression"}
{"compound": "Cc1ncsc1-c1ccc(CNC(=O)[C@@H]2C[C@@H](O)CN2C(=O)[C@@H](NC(=O)CCCCC(=O)N2CCN(C(=O)c3ccc(Nc4nc(C5CC5)cn5c(-c6cn[nH]c6)cnc45)c(F)c3)CC2)C(C)(C)C)cc1", "note": "[YX79-11, (2S,4R)-1-((S)-2-(6-(4-(4-((6-cyclopropyl-3-(1H-pyrazol-4-yl)imidazo[1,2-a]pyrazin-8-yl)amino)-3-fluorobenzoyl)piperazin-1-yl)-6-oxohexanamido)-3,3-dimethylbutanoyl)-4-hydroxy-N-(4-(4-methylthiazol-5-yl)benzyl)pyrrolidine-2-carboxamide]", "reducing PTK6 protein levels / suppress PTK6 expression": "potently suppress PTK6 expression"}
{"compound": "Cc1ncsc1-c1ccc(CNC(=O)[C@@H]2C[C@@H](O)CN2C(=O)[C@@H](NC(=O)COCC(=O)N2CCN(C(=O)c3ccc(Nc4nc(C5CC5)cn5c(-c6cn[nH]c6)cnc45)c(F)c3)CC2)C(C)(C)C)cc1", "note": "[YX79-40, (2S,4R)-1-((S)-2-(2-(2-(4-(4-((6-cyclopropyl-3-(1H-pyrazol-4-yl)imidazo[1,2-a]pyrazin-8-yl)amino)-3-fluorobenzoyl)piperazin-1-yl)-2-oxoethoxy)acetamido)-3,3-dimethylbutanoyl)-4-hydroxy-N-(4-(4-methylthiazol-5-yl)benzyl)pyrrolidine-2-carboxamide]", "reducing PTK6 protein levels / suppress PTK6 expression": "potently suppress PTK6 expression"}
{"compound": "Cc1ncsc1-c1ccc(CNC(=O)[C@@H]2C[C@@H](O)CN2C(=O)[C@@H](NC(=O)CCCCNC(=O)CN2CCN(C(=O)c3ccc(Nc4nc(C5CC5)cn5c(-c6cn[nH]c6)cnc45)c(F)c3)CC2)C(C)(C)C)cc1", "note": "[YX39-101, (2S,4R)-1-((S)-2-(5-(2-(4-(4-((6-cyclopropyl-3-(1H-pyrazol-4-yl)imidazo[1,2-a]pyrazin-8-yl)amino)-3-fluorobenzoyl)piperazin-1-yl)acetamido)pentanamido)-3,3-dimethylbutanoyl)-4-hydroxy-N-(4-(4-methylthiazol-5-yl)benzyl)pyrrolidine-2-carboxamide]", "reducing PTK6 protein levels / suppress PTK6 expression": "effective in reducing PTK6 protein levels"}
{"compound": "Cc1ncsc1-c1ccc([C@H](C)NC(=O)[C@@H]2C[C@@H](O)CN2C(=O)[C@@H](NC(=O)COCCOCCOCCNC(=O)CN2CCN(C(=O)c3ccc(Nc4nc(C5CC5)cn5c(-c6cn[nH]c6)cnc45)c(F)c3)CC2)C(C)(C)C)cc1", "note": "[YX69-159, (2S,4R)-1-((S)-2-(tert-butyl)-17-(4-(4-((6-cyclopropyl-3-(1H-pyrazol-4-yl)imidazo[1,2-a]pyrazin-8-yl)amino)-3-fluorobenzoyl)piperazin-1-yl)-4,16-dioxo-6,9,12-trioxa-3,15-diazaheptadecanoyl)-4-hydroxy-N-((S)-1-(4-(4-methylthiazol-5-yl)phenyl)ethyl)pyrrolidine-2-carboxamide]", "reducing PTK6 protein levels / suppress PTK6 expression": "potently suppress PTK6 expression"}
{"compound": "Cc1ncsc1-c1ccc(CNC(=O)[C@@H]2C[C@@H](O)CN2C(=O)[C@@H](NC(=O)COCCOCC(=O)N2CCN(C(=O)c3ccc(Nc4nc(C5CC5)cn5c(-c6cn[nH]c6)cnc45)c(F)c3)CC2)C(C)(C)C)cc1", "note": "[YX79-41, (2S,4R)-1-((S)-2-(2-(2-(2-(4-(4-((6-cyclopropyl-3-(1H-pyrazol-4-yl)imidazo[1,2-a]pyrazin-8-yl)amino)-3-fluorobenzoyl)piperazin-1-yl)-2-oxoethoxy)ethoxy)acetamido)-3,3-dimethylbutanoyl)-4-hydroxy-N-(4-(4-methylthiazol-5-yl)benzyl)pyrrolidine-2-carboxamide]", "reducing PTK6 protein levels / suppress PTK6 expression": "potently suppress PTK6 expression"}
{"compound": "Cc1ncsc1-c1ccc(CNC(=O)[C@@H]2C[C@@H](O)CN2C(=O)[C@@H](NC(=O)COCCOCCOCC(=O)N2CCN(C(=O)c3ccc(Nc4nc(C5CC5)cn5c(-c6cn[nH]c6)cnc45)c(F)c3)CC2)C(C)(C)C)cc1", "note": "[YX79-42, (2S,4R)-1-((S)-2-(tert-butyl)-14-(4-(4-((6-cyclopropyl-3-(1H-pyrazol-4-yl)imidazo[1,2-a]pyrazin-8-yl)amino)-3-fluorobenzoyl)piperazin-1-yl)-4,14-dioxo-6,9,12-trioxa-3-azatetradecanoyl)-4-hydroxy-N-(4-(4-methylthiazol-5-yl)benzyl)pyrrolidine-2-carboxamide]", "reducing PTK6 protein levels / suppress PTK6 expression": "potently suppress PTK6 expression"}
{"compound": "Cc1ncsc1-c1ccc(CNC(=O)[C@@H]2C[C@@H](O)CN2C(=O)[C@@H](NC(=O)CCCCCCCNC(=O)CN2CCN(C(=O)c3ccc(Nc4nc(C5CC5)cn5c(-c6cn[nH]c6)cnc45)c(F)c3)CC2)C(C)(C)C)cc1", "note": "[YX39-104, (2S,4R)-1-((S)-2-(8-(2-(4-(4-((6-cyclopropyl-3-(1H-pyrazol-4-yl)imidazo[1,2-a]pyrazin-8-yl)amino)-3-fluorobenzoyl)piperazin-1-yl)acetamido)octanamido)-3,3-dimethylbutanoyl)-4-hydroxy-N-(4-(4-methylthiazol-5-yl)benzyl)pyrrolidine-2-carboxamide]", "reducing PTK6 protein levels / suppress PTK6 expression": "effective in reducing PTK6 protein levels"}
{"compound": "O=C1CCC(N2C(=O)c3cccc(NCCOCCOCCC(=O)N4CCN(C(=O)c5ccc(Nc6nc(C7CC7)cn7c(-c8cn[nH]c8)cnc67)c(F)c5)CC4)c3C2=O)C(=O)N1", "note": "(centres unmarked) [YX79-36, 4-((2-(2-(3-(4-(4-((6-cyclopropyl-3-(1H-pyrazol-4-yl)imidazo[1,2-a]pyrazin-8-yl)amino)-3-fluorobenzoyl)piperazin-1-yl)-3-oxopropoxy)ethoxy)ethyl)amino)-2-(2,6-dioxopiperidin-3-yl)isoindoline-1,3-dione]", "reducing PTK6 protein levels / suppress PTK6 expression": "potently suppress PTK6 expression"}
{"compound": "Cc1ncsc1-c1ccc(CNC(=O)[C@@H]2C[C@@H](O)CN2C(=O)[C@@H](NC(=O)CCCCCNC(=O)CN2CCN(C(=O)c3ccc(Nc4nc(C5CC5)cn5c(-c6cn[nH]c6)cnc45)c(F)c3)CC2)C(C)(C)C)cc1", "note": "[YX39-102, (2S,4R)-1-((S)-2-(6-(2-(4-(4-((6-cyclopropyl-3-(1H-pyrazol-4-yl)imidazo[1,2-a]pyrazin-8-yl)amino)-3-fluorobenzoyl)piperazin-1-yl)acetamido)hexanamido)-3,3-dimethylbutanoyl)-4-hydroxy-N-(4-(4-methylthiazol-5-yl)benzyl)pyrrolidine-2-carboxamide]", "reducing PTK6 protein levels / suppress PTK6 expression": "effective in reducing PTK6 protein levels"}
{"compound": "Cc1ncsc1-c1ccc(CNC(=O)[C@@H]2C[C@@H](O)CN2C(=O)[C@@H](NC(=O)CCOCCC(=O)N2CCN(C(=O)c3ccc(Nc4nc(C5CC5)cn5c(-c6cn[nH]c6)cnc45)c(F)c3)CC2)C(C)(C)C)cc1", "note": "[YX79-15, (2S,4R)-1-((S)-2-(3-(3-(4-(4-((6-cyclopropyl-3-(1H-pyrazol-4-yl)imidazo[1,2-a]pyrazin-8-yl)amino)-3-fluorobenzoyl)piperazin-1-yl)-3-oxopropoxy)propanamido)-3,3-dimethylbutanoyl)-4-hydroxy-N-(4-(4-methylthiazol-5-yl)benzyl)pyrrolidine-2-carboxamide]", "reducing PTK6 protein levels / suppress PTK6 expression": "potently suppress PTK6 expression"}
{"compound": "O=C1CCC(N2C(=O)c3cccc(NCCOCCOCCOCCC(=O)N4CCN(C(=O)c5ccc(Nc6nc(C7CC7)cn7c(-c8cn[nH]c8)cnc67)c(F)c5)CC4)c3C2=O)C(=O)N1", "note": "(centres unmarked) [YX79-37, 4-((2-(2-(2-(3-(4-(4-((6-cyclopropyl-3-(1H-pyrazol-4-yl)imidazo[1,2-a]pyrazin-8-yl)amino)-3-fluorobenzoyl)piperazin-1-yl)-3-oxopropoxy)ethoxy)ethoxy)ethyl)amino)-2-(2,6-dioxopiperidin-3-yl)isoindoline-1,3-dione]", "reducing PTK6 protein levels / suppress PTK6 expression": "potently suppress PTK6 expression"}
